From patent US6420163B1, “Pharmacological targeting of mRNA cap formation” (priority 1998, dated 2002)

What was measured:
[1] = target: T1, human cap methyltransferase (Hcm1p) (Homo sapiens, UniProt O43148); assay type: biochemical
T1 construct: His-tag (pET16b leader) (N); made in house; host or cells: Escherichia coli BL21(DE3)

[2] = target: T2, Mce1(1-210)p RNA triphosphatase domain (Mus musculus, UniProt O55236); conditions: 0.5 mM divalent cation; cited from earlier work
T2 construct: The N-terminal portion of Mce1p from residues 1-210 is an autonomous RNA triphosphatase domain; made in house; host or cells: bacteria
T2 sequence (O55236 1-210): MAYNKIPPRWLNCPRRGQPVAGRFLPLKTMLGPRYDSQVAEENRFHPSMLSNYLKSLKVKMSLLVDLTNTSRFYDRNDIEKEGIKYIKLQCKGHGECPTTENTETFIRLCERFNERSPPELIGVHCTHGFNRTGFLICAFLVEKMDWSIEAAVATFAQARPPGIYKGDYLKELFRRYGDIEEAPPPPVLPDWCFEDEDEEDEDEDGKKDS

[3] = target: T3, yeast RNA triphosphatase Cet1p (Saccharomyces cerevisiae, UniProt O13297); assay: Manganese-dependent ATP hydrolysis by Cet1p; assay type: biochemical; conditions: truncated Cet1(201-549)p
T3 construct: His-tag; made in house; host or cells: Escherichia coli BL21(DE3)
Experimental: (§1) (FIG. 8A) Protein titration. Reaction mixtures (10 μl) containing 50 mM Tris HCl (pH 7.0), 5 mM DTT, 2 mM MnCl2, 1 mM [γ^32P]ATP, and either Cet1p, Cet1(201-549)p, or Cet1(246-549)p were incubated for 15 min at 30° C. Pi release is plotted as a function of input protein. (FIG. 8B) Kinetics. Reaction mixtures (100 μl) containing 50 mM Tris HCl (pH 7.0), 5 mM DTT, 2 mM MnCl2, 1 mM [γ^32P]ATP, and either 8, 16, or 32 nM Cet1p were incubated at 30° C. Aliquots (10 μl) were withdrawn at the times indicated and quenched immediately by the addition of […] of 5 M formic acid. Pi release is plotted as a function of time. (FIG. 8C) Hydrolysis of [α^32P]ATP. […] The products were analyzed by TLC. […] An otherwise identical reaction containing 1 mM [γ^32P]ATP was analyzed in parallel; Pi release (●). […]
(§2) The extent of ^32Pi relase from [Υ^32P]ATP during a 15 min reaction was proportional to the amount of input Cetlp protein (FIG. 8A). ^32Pi accumulated with time over 30 min; the rate of reaction varied linearly with Cetlp concentration (FIG. 8B). From a plot of initial rate versus enzyme concentration, a turnover number of 25 s^−1 was calculated. Cetlp catalyzed the quantitative conversion of [α^32P]ATP to [α^32P]ADP. […] No formation of [α^32P]AMP from [α^32P]ATP was detected, even after 20-45 min of incubation, by which time all of the nucleotide had been converted to ADP. […]

[4] = target: T4, yeast RNA triphosphatase Cet1p (Saccharomyces cerevisiae, UniProt O13297); assay: Manganese-dependent ATP hydrolysis by Cet1p; assay type: biochemical; conditions: full-length Cet1p, 2 mM MnCl2, pH 7.0, 30° C.
T4 construct: His-tag; made in house; host or cells: Escherichia coli BL21(DE3)
T4 sequence (O13297 1-549): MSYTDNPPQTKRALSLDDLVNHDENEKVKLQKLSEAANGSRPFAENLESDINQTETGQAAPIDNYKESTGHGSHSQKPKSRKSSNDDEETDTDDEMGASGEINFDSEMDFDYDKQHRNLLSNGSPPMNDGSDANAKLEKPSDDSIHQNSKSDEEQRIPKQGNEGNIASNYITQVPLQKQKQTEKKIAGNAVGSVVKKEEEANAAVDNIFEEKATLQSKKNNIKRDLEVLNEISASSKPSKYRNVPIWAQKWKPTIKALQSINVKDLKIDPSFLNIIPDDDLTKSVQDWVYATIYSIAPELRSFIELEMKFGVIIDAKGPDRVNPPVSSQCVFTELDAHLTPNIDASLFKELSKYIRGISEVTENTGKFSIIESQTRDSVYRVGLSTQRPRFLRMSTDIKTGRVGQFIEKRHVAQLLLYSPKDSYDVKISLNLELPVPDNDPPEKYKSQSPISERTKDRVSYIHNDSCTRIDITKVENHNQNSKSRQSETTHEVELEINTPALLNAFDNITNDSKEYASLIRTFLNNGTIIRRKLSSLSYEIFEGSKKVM
Experimental: as §1, §2

LEF-4 = LEF-4 (Autographa californica nuclear polyhedrosis virus, UniProt P41477); conditions: read-out: Km for ATP; cited from earlier work
Sequence of LEF-4 (P41477 whole entry): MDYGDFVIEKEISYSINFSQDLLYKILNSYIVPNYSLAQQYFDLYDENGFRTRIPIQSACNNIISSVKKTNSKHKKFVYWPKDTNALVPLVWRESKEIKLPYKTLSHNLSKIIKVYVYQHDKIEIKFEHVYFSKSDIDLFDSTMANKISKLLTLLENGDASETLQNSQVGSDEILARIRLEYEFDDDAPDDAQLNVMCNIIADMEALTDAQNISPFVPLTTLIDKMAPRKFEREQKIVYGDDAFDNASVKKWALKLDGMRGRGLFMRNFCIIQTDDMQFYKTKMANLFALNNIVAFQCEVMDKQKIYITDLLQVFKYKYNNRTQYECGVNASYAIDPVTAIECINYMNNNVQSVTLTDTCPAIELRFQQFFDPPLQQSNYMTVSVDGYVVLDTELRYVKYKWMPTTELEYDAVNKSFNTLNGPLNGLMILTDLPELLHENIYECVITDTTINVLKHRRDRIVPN

vaccinia triphosphatase = vaccinia triphosphatase (Vaccinia virus, UniProt P04298); conditions: read-out: Km for ATP; cited from earlier work

T1 sequence (O43148 whole entry): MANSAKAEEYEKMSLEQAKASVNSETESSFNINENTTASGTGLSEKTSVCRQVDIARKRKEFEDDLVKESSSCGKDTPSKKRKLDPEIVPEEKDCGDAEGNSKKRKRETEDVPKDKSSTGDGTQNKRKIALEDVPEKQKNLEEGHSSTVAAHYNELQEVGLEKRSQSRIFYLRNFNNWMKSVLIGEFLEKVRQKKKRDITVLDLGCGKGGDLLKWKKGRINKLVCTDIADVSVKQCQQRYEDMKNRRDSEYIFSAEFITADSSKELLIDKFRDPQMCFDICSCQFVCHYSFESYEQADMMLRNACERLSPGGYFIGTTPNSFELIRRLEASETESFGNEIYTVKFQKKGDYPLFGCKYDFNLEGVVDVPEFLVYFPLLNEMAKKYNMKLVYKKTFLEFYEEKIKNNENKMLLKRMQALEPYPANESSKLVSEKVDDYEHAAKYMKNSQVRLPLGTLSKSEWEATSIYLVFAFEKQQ

## Nc1ncnc2c1ncn2[C@@H]1O[C@H](CSCC[C@H](N)C(=O)O)[C@@H](O)[C@H]1O [AdoHcy, S-adenosylhomocysteine]
[1]; 50 μM AdoMet plus 500 μM AdoHcy
  effect on cap methylation (FIG. 9, lane 4): partially inhibitory
[1]; 100 μM AdoHcy in the presence of 10 μM AdoMet
  reduction of cap methylation: 80%

## [Cl][Mn][Cl] [MnCl2]
[2]
  inhibition of RNA triphosphatase activity: 75%

## C[S+](CC[C@H](N)C(=O)[O-])C[C@H]1O[C@@H](n2cnc3c(N)ncnc32)[C@H](O)[C@@H]1O (stereo partly shown) [AdoMet, S-adenosylmethionine]
[1]; peak glycerol gradient fraction of Hcm1p
  AdoMet concentration giving half-maximal activity: ~25 µM

## Nc1ncnc2c1ncn2[C@@H]1O[C@H](COP(=O)(O)OP(=O)(O)OP(=O)(O)O)[C@@H](O)[C@H]1O [ATP]
[3]
  Km: 3.3 µM
[4]
  Km: 2.8 µM
LEF-4
  Km: 43 µM
Vaccinia triphosphatase
  Km: 800 µM

## [Cl-].[Cl-].[Mg+2] [MgCl2]
[1]; 1 mM magnesium
  effect of magnesium on cap methylation: reduced by an order of magnitude
[2]
  inhibition of RNA triphosphatase activity: 75%
